The values below come from ChEMBL document CHEMBL2176972, “Potential use of selective and nonselective Pim kinase inhibitors for cancer therapy” (J Med Chem, 2012).

Test [1] has as its target Serine/threonine-protein kinase pim-2 (Homo sapiens, UniProt Q9P1W9). Nature of the test: Competitive inhibition of PIM2 in presence of ATP.
Test [2] deals with Casein kinase II subunit alpha (Homo sapiens, UniProt P68400). Nature of the test: Competitive inhibition of CK2alpha using RRREDEESDDEE as substrate after 5 mins by scintillation counter in presence of [gamma-32P]ATP.
For test [3], the target named is Serine/threonine-protein kinase pim-1 (Homo sapiens, UniProt P11309). The test is described as follows: Competitive inhibition of PIM1 using KKRNRTLTV as substrate after 5 mins by scintillation counter in presence of [gamma-32P]ATP.
For test [4], the target named is T1, Serine/threonine-protein kinase haspin (Homo sapiens, UniProt Q8TF76).
T1 sequence (Q8TF76 whole entry): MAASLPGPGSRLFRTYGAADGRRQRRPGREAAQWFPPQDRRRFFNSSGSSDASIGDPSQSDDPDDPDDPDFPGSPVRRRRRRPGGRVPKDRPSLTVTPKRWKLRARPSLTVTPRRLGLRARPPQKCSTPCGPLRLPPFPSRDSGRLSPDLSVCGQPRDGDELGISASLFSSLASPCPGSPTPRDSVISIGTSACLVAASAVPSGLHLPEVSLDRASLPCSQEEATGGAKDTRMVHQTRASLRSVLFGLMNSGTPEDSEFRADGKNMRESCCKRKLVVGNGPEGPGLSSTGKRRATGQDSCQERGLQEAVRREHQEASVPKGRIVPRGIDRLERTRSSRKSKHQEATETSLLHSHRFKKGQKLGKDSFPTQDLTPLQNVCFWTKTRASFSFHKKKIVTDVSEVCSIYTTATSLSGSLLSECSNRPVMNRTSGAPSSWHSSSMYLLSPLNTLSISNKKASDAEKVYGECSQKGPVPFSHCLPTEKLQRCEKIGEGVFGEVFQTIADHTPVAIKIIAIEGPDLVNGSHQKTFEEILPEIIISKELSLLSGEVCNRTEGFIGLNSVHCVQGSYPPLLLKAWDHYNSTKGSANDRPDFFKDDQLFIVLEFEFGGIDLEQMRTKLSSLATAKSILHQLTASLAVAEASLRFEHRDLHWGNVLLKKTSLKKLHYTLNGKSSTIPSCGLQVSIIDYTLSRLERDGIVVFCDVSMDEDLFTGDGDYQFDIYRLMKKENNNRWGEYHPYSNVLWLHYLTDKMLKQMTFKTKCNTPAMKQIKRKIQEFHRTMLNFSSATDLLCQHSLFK
The test is described as follows: Inhibition of haspin.

Structures are written as SMILES.

As for `O=C1NC(=O)/C(=C/c2cccc(C(F)(F)F)c2)S1`, the Ki (in general, a dissociation constant, usually derived from enzyme kinetics or from competition with a known ligand) in test [1] was determined as 100 nM.
On to `O=C(O)c1cc2c(ccc3cc4c(ccc5oc(C(=O)O)cc54)cc32)o1`, for which the IC50 (in general, the concentration needed to halve the response being measured) worked out at 63 nM in test [2] and 20 nM in test [3].
In the case of `CN1CCC(CNc2ccc3ncc(-c4cccc(OC(F)(F)F)c4)n3n2)CC1` [SGI-1776], in test [4], half-maximal inhibition (IC50) required 34 nM.
